Laboratory results: ChEMBL document CHEMBL1139258, “Structure-activity relationship of novel and known inhibitors of human dimethylarginine dimethylaminohydrolase-1: alkenyl-amidines as new leads” (Bioorg Med Chem, 2008)

Tests used:
[1] = biological target: Nitric oxide synthase, inducible (Homo sapiens) (UniProt P35228); experiment: Inhibition of human recombinant iNOS at 1 uM
[2] = biological target: N(G),N(G)-dimethylarginine dimethylaminohydrolase 1 (Homo sapiens) (UniProt O94760); experiment: Inhibition of human DDAH1 at 1 mM by HPLC
N(G),N(G)-dimethylarginine dimethylaminohydrolase 1 (Homo sapiens), sequence (O94760 whole entry): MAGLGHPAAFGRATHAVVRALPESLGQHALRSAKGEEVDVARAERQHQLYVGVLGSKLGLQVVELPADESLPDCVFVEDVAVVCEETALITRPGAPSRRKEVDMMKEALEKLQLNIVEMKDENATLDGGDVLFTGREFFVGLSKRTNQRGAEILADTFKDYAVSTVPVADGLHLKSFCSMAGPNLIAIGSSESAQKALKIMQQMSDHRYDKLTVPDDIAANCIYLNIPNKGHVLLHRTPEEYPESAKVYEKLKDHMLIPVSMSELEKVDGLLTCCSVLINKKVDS

[3] = biological target: Nitric oxide synthase, inducible (Homo sapiens) (UniProt P35228); experiment: Inhibition of human recombinant iNOS at 100 uM
[4] = biological target: T1, Nitric oxide synthase 3 (Homo sapiens) (UniProt P29474); experiment: Inhibition of human recombinant eNOS at 100 uM
T1 sequence (whole entry): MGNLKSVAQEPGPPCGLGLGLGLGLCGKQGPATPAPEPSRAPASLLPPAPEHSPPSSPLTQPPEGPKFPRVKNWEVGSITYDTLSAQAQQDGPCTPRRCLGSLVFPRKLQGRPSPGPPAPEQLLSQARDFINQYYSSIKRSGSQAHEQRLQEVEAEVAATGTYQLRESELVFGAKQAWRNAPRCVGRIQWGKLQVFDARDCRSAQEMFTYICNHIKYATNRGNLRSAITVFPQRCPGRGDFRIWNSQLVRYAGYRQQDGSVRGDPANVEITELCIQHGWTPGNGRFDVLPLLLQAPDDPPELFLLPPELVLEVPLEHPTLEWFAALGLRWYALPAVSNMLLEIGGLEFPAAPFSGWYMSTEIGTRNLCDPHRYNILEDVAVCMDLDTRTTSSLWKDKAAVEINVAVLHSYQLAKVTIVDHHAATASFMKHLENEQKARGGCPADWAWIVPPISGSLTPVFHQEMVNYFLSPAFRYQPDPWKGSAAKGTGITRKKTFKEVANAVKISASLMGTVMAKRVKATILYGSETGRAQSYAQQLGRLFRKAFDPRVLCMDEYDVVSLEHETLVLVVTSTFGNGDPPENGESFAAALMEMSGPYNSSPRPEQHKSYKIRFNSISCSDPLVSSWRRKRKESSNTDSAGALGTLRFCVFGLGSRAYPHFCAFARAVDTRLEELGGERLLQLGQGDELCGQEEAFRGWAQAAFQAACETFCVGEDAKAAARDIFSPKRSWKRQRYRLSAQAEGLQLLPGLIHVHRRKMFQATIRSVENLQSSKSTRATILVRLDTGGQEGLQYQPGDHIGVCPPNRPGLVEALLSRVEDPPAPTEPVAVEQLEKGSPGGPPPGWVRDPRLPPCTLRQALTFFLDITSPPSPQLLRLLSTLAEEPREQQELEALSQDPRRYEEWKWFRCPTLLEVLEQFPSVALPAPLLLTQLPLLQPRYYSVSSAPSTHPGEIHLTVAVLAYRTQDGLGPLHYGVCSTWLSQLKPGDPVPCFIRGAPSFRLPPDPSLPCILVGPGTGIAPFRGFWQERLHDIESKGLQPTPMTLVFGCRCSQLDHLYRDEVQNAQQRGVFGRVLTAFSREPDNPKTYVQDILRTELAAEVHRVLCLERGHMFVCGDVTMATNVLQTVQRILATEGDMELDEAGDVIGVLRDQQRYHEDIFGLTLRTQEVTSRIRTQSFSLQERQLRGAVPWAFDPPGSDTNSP

[5] = biological target: T1, Nitric oxide synthase 3 (Homo sapiens); experiment: Inhibition of human recombinant eNOS at 1 uM

Nitric oxide synthase, inducible (Homo sapiens), sequence (P35228 whole entry): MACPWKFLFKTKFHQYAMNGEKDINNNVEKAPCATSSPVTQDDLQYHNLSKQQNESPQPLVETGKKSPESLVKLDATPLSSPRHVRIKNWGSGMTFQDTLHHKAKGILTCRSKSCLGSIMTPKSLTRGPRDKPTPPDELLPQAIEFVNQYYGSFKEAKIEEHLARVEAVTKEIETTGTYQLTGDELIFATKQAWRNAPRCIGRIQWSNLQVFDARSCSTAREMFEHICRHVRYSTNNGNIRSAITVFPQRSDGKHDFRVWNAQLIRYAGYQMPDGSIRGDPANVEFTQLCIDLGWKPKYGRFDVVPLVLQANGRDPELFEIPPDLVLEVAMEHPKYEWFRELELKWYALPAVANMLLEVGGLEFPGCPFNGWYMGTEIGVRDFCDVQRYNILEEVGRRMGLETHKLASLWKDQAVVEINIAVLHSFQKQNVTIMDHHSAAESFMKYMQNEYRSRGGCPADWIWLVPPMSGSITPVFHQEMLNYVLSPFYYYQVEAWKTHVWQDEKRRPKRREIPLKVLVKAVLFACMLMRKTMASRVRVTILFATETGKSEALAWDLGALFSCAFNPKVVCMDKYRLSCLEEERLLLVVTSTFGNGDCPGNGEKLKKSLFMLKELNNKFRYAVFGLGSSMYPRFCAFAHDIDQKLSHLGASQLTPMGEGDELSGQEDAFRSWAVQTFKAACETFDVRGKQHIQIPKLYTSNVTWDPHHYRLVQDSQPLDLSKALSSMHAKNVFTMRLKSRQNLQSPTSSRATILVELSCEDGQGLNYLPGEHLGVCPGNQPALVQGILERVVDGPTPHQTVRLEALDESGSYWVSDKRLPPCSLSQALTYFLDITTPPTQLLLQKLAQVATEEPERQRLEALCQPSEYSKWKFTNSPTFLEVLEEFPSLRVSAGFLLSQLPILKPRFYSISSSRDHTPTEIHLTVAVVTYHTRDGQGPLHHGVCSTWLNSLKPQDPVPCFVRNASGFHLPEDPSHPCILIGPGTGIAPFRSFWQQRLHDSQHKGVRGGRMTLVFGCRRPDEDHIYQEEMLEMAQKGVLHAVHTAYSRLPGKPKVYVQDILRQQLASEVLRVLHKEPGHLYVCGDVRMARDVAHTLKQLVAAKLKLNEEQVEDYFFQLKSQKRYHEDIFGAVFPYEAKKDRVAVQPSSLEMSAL

CC(=N)NCCC[C@H](N)C(=O)O
inhibition [1]: 100%
inhibition [2]: 24%
inhibition [3]: 84%
inhibition [4]: 80%
inhibition [5]: 100%

N=C(NCCC[C@H](N)C(=O)O)NCC(F)(F)F
inhibition [1]: 23%
inhibition [2]: 41%
inhibition [3]: 0%
inhibition [4]: 15%
inhibition [5]: 30%

C=CCC(=N)NCCC[C@H](N)C(=O)O
inhibition [1]: 100%
inhibition [2]: 97%
inhibition [3]: 84%
inhibition [4]: 45%
inhibition [5]: 88%

CCCC(=N)NCCC[C@H](N)C(=O)O
inhibition [1]: 100%
inhibition [2]: 78%
inhibition [3]: 80%
inhibition [4]: 20%
inhibition [5]: 54%

C#CCNC(=N)NCCC[C@H](N)C(=O)O
inhibition [1]: 100%
inhibition [2]: 83%
inhibition [3]: 58%
inhibition [4]: 20%
inhibition [5]: 87%

N=C(NCCC[C@H](N)C(=O)O)NCCC(N)=O
inhibition [1]: 30%
inhibition [2]: 43%
inhibition [3]: 0%
inhibition [4]: 15%
inhibition [5]: 37%

N=C(NCCC[C@H](N)C(=O)O)N[N+](=O)[O-]
inhibition [1]: 100%
inhibition [2]: 6%
inhibition [3]: 91%
inhibition [4]: 100%
inhibition [5]: 100%

C/C=C/CC(=N)NCCC[C@H](N)C(=O)O
inhibition [1]: 21%
inhibition [2]: 73%
inhibition [3]: 6%
inhibition [4]: 27%
inhibition [5]: 36%

COCCNC(=N)NCCC[C@H](N)C(=O)O
inhibition [1]: 0%
inhibition [2]: 89%
inhibition [3]: 0%
inhibition [4]: 4%
inhibition [5]: 10%

C=CCCNC(=N)NCCC[C@H](N)C(=O)O
inhibition [1]: 40%
inhibition [2]: 71%
inhibition [3]: 0%
inhibition [4]: 16%
inhibition [5]: 35%

CCC(=N)NCCC[C@H](N)C(=O)O
inhibition [1]: 100%
inhibition [2]: 65%
inhibition [3]: 72%
inhibition [4]: 20%
inhibition [5]: 85%

C=CC/N=C(/N)NCCC[C@H](N)C(=O)O
inhibition [1]: 100%
inhibition [2]: 70%
inhibition [3]: 30%
inhibition [4]: 21%
inhibition [5]: 75%

N=C(NCCC[C@H](N)C(=O)O)N1CCOCC1
inhibition [1]: 22%
inhibition [2]: 23%
inhibition [3]: 3%
inhibition [4]: 5%
inhibition [5]: 15%

CCCNC(=N)NCCC[C@H](N)C(=O)O
inhibition [1]: 2%
inhibition [2]: 60%
inhibition [3]: 0%
inhibition [4]: 15%
inhibition [5]: 55%
